Results from ChEMBL document CHEMBL1201862, “PubChem BioAssay data set” (2004).
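Following 48 hours of exposure in 96-well plates, responses at five concentrations were used to interpolate endpoints linearly. At the GI50, growth is halved.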 Calls of active or inactive are those of the source. Rule as the data show it: active = GI50 up to about 1.1 µM and inactive = higher.

Legend:
Test in all cases: NCI anticancer screen, dose series, 48 h
A549 = tested on: A549
CAKI-1 = tested on: CAKI-1
EKVX = tested on: EKVX
HCC 2998 = tested on: HCC 2998
HCT-116 = tested on: HCT-116
HCT-15 = tested on: HCT-15
HT-29 = tested on: HT-29
M14 = tested on: M14
MCF7 = tested on: MCF7
NCI-H460 = tested on: NCI-H460
OVCAR-4 = tested on: OVCAR-4
RXF 393 = tested on: RXF 393
SF-539 = tested on: SF-539
SNB-19 = tested on: SNB-19
UACC-257 = tested on: UACC-257
NCI-H23 = tested on: NCI-H23
NCI-H522 = tested on: NCI-H522
OVCAR-3 = tested on: OVCAR-3
SF-295 = tested on: SF-295
A498 = tested on: A498

Compound | GI50 (A549) | GI50 (CAKI-1) | GI50 (EKVX) | GI50 (HCC 2998) | GI50 (HCT-116) | GI50 (HCT-15) [µM] | GI50 (HT-29) | GI50 (M14) | GI50 (MCF7) | GI50 (NCI-H460) | GI50 (OVCAR-4) | GI50 (RXF 393) | GI50 (SF-539) | GI50 (SNB-19) | GI50 (UACC-257) | GI50 (NCI-H23) | GI50 (NCI-H522) | GI50 (OVCAR-3) | GI50 (SF-295) | GI50 (A498)
Cn1c2ccccc2c(=O)c2c(O)cc3c(c21)C1OCC(C)(O)C1O3 (centres undefined) | 61.8 µM (inactive) | 30.7 µM (inactive) | 7.48 µM (inactive) | > 100 µM (inactive) | 37.8 µM (inactive) | 53.3 | 31.8 µM (inactive) | > 100 µM (inactive) | 51.5 µM (inactive) | > 10 µM (inactive) | > 100 µM (inactive) | 22.5 µM (inactive) | 21.6 µM (inactive) | 26.6 µM (inactive) | > 100 µM (inactive) |  |  |  |  | 
Cc1nc2sc(CCl)nn2c(=O)c1Cl | 15.1 µM (inactive) | 11.2 µM (inactive) | 11.1 µM (inactive) | 22 µM (inactive) | 13.4 µM (inactive) | 11.5 | 12.9 µM (inactive) | 12.1 µM (inactive) | 4.58 µM (inactive) | 10.6 µM (inactive) | 15.7 µM (inactive) | 4.57 µM (inactive) | 16.7 µM (inactive) | 16.3 µM (inactive) | 12.3 µM (inactive) | 17.4 µM (inactive) | 3.15 µM (inactive) | 15.9 µM (inactive) | 16.6 µM (inactive) | 
COc1ccc(C#CC(=O)O)c(OC)c1 | > 100 µM (inactive) | > 100 µM (inactive) | > 100 µM (inactive) | > 100 µM (inactive) | > 100 µM (inactive) | > 100 | > 100 µM (inactive) | > 100 µM (inactive) | > 100 µM (inactive) | > 100 µM (inactive) | > 100 µM (inactive) |  | > 100 µM (inactive) | > 100 µM (inactive) | > 100 µM (inactive) | > 100 µM (inactive) |  | > 100 µM (inactive) | > 100 µM (inactive) | > 100 µM (inactive)
COc1ccc2c(c1)C/C(=C\c1cccc3ccccc13)C2=O | 6.89 µM (inactive) | > 100 µM (inactive) | 18.5 µM (inactive) | 5.04 µM (inactive) |  | 4.7 | 4.91 µM (inactive) | 5.97 µM (inactive) | 5.19 µM (inactive) | 4.99 µM (inactive) | 67.9 µM (inactive) | 0.0902 µM (active) | 7.33 µM (inactive) | 69.2 µM (inactive) |  | 2.84 µM (inactive) |  | 13.4 µM (inactive) |  | 23.4 µM (inactive)
Clc1ccc(-c2cn3c(nc4ccccc43)c(/C=C/c3cccs3)n2)cc1 | > 100 µM (inactive) |  |  | > 100 µM (inactive) | 97.9 µM (inactive) | > 100 | > 100 µM (inactive) | > 100 µM (inactive) | 7.08 µM (inactive) | 67.8 µM (inactive) | 34.7 µM (inactive) | > 100 µM (inactive) | > 100 µM (inactive) | > 100 µM (inactive) | 52.6 µM (inactive) | 52.5 µM (inactive) |  | > 100 µM (inactive) |  | > 100 µM (inactive)
O=C(Nc1ccc(Cl)c(Cl)c1)OCCN1c2ccccc2Sc2ccccc21 | > 10 µM (inactive) | > 10 µM (inactive) |  | > 10 µM (inactive) | > 10 µM (inactive) | > 10 | > 10 µM (inactive) | > 10 µM (inactive) | > 10 µM (inactive) |  | > 10 µM (inactive) |  | > 10 µM (inactive) | > 10 µM (inactive) | > 10 µM (inactive) | > 10 µM (inactive) | > 10 µM (inactive) | > 10 µM (inactive) | > 10 µM (inactive) | 
Cc1cc2nc(N3C(=O)/C(=C/Cc4ccco4)N=C3c3ccccc3)sc2cc1C | 36.9 µM (inactive) | 44.4 µM (inactive) | 20.7 µM (inactive) | 24.6 µM (inactive) | 17 µM (inactive) | 30.5 | 23.7 µM (inactive) | 35.6 µM (inactive) | 13.4 µM (inactive) | 23.6 µM (inactive) | 29.5 µM (inactive) | 13.6 µM (inactive) | 41.1 µM (inactive) | 49.7 µM (inactive) | 26 µM (inactive) |  |  | 22.3 µM (inactive) | 43.8 µM (inactive) | 
Cn1c(=O)c2c(nc3sc4nc5ccccc5nc4n32)n(C)c1=O | > 100 µM (inactive) | > 100 µM (inactive) | > 100 µM (inactive) | > 100 µM (inactive) | > 100 µM (inactive) | > 100 | > 100 µM (inactive) | > 100 µM (inactive) | > 100 µM (inactive) | > 100 µM (inactive) |  | > 100 µM (inactive) | > 100 µM (inactive) | > 100 µM (inactive) | > 100 µM (inactive) | > 100 µM (inactive) |  | > 100 µM (inactive) | 49.5 µM (inactive) | > 100 µM (inactive)
O=C1/C(=C\c2ccc(Cl)cc2Cl)Sc2scc(-c3ccc(O)c(O)c3)[n+]21 | 16.9 µM (inactive) | 20.1 µM (inactive) | 19.9 µM (inactive) | 17 µM (inactive) | 14.5 µM (inactive) | 14.8 | 16.7 µM (inactive) | 16.3 µM (inactive) | 16.2 µM (inactive) | 16 µM (inactive) | 13.4 µM (inactive) | 12.4 µM (inactive) | 17.1 µM (inactive) | 17.6 µM (inactive) | 18.8 µM (inactive) | 11.6 µM (inactive) | 16.5 µM (inactive) | 6.47 µM (inactive) | 17.4 µM (inactive) | 
N#Cc1nc(Cc2cccs2)oc1N | > 100 µM (inactive) | > 100 µM (inactive) | > 100 µM (inactive) |  | > 100 µM (inactive) | > 100 | > 100 µM (inactive) | > 100 µM (inactive) | > 100 µM (inactive) |  |  | > 100 µM (inactive) |  | > 100 µM (inactive) | > 100 µM (inactive) |  |  |  |  | > 100 µM (inactive)
CC(C)(C)c1c(C(C)(C)C)c(=O)c1=O | > 100 µM (inactive) | > 100 µM (inactive) | > 100 µM (inactive) | > 100 µM (inactive) | > 100 µM (inactive) | > 100 | > 100 µM (inactive) | > 100 µM (inactive) | > 100 µM (inactive) | > 100 µM (inactive) | > 100 µM (inactive) | > 100 µM (inactive) | > 100 µM (inactive) | > 100 µM (inactive) | > 100 µM (inactive) | > 100 µM (inactive) |  | > 100 µM (inactive) | > 100 µM (inactive) | 86.1 µM (inactive)
CC(=O)NCCc1c[nH]c2ccc(Cl)cc12 | > 100 µM (inactive) | > 100 µM (inactive) | > 100 µM (inactive) | 74.8 µM (inactive) | > 100 µM (inactive) | > 100 | > 100 µM (inactive) | 90.2 µM (inactive) | > 100 µM (inactive) | > 100 µM (inactive) | > 100 µM (inactive) | > 100 µM (inactive) | > 100 µM (inactive) | > 100 µM (inactive) | > 100 µM (inactive) | > 100 µM (inactive) | 91 µM (inactive) | > 100 µM (inactive) | > 100 µM (inactive) | 
